Assay results published in paper PMC8558502 (The Biochemical journal, 2020).

Key:
[1] = tested on: R. delemar tyrosinase enzyme activity; assay type: cell-based, Rhizopus delemar; conditions: 10 μg/ml, 3 days, protein extract with 10 mM L-DOPA
[2] = tested on: Rhizopus delemar melanin production; conditions: cited from earlier work
Rhizopus delemar = assay: Growth; assay type: cell-based; conditions: kojic acid 50 μg/ml, 3 days

| Structure (SMILES) | Inhibitory effect on melanin biosynthesis (tyrosinase activity) of R. delemar [1] | Reduction of melanin production from R. delemar [2] | Effect on growth of fungal hyphae (Rhizopus delemar) |
| --- | --- | --- | --- |
| CC(C)c1ccc(C=O)cc1 [Cuminaldehyde, cuminaldehyde] | highest | causes reduction of melanin production | – |
| O=c1cc(CO)occ1O [Kojic acid] | highest | – | significant reduction in the growth of fungal hyphae |
